Several values for one entry are separate records, joined by “and”; a condition that tells them apart may be missing. Identical values can stand only once. Like-named read-outs stand apart in the source and are kept apart here.
Experiments:
[1] = target: C. elegans (N2) complex I (NADH:ubiquinone oxidoreductase) (Caenorhabditis elegans, UniProt P24887+Q93873+Q94360); assay: biochemical; assay type: biochemical
Summary of the method: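 Mitochondria, 0.2 mg/mL protein, freeze-thawed three times, assayed in 25 mM KPi pH 7.5 with BSA, 80 μM NADH, 60 μM decylubiquinone, 160 μM DCIP, antimycin A and KCN. Rate from initial linear slope of A600 over 15 min. % of solvent control.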

[2] = target: B. taurus (heart) complex I (Bos taurus, UniProt P03887+P17694+P42026); assay: biochemical; assay type: biochemical
Chain of B. taurus (heart) complex I (P03887 whole entry): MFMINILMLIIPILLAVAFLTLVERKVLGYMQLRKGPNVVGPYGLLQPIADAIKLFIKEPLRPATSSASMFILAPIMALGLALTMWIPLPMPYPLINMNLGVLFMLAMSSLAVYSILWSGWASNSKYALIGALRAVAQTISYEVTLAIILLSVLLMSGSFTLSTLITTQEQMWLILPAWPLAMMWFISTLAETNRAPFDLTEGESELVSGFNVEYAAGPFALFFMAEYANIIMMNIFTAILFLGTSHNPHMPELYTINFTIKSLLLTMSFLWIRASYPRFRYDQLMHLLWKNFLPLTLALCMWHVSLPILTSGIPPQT
Chain of B. taurus (heart) complex I (P17694 34-463): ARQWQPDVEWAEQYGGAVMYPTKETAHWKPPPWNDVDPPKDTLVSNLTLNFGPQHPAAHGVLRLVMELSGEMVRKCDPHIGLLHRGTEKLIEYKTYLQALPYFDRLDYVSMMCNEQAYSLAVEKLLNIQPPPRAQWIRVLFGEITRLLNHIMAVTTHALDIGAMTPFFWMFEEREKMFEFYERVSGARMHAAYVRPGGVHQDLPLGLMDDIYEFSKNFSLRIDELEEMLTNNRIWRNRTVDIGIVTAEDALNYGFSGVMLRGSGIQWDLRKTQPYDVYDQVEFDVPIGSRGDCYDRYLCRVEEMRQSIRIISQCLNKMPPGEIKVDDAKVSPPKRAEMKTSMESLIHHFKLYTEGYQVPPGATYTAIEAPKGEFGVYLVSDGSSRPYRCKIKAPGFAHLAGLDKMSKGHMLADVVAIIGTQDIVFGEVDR
Chain of B. taurus (heart) complex I (P42026 38-216): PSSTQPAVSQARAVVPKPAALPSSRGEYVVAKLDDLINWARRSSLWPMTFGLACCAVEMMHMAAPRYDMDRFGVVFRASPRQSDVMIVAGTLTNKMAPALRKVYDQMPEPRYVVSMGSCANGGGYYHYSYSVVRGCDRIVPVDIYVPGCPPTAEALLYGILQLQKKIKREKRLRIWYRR
Summary of the method: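 Complex I activity followed as DCIP reduction (600 nm, 30 s reads, 15 min) with 80 μM NADH and 60 μM decylubiquinone in 25 mM KPi pH 7.5 containing 2 μM antimycin A and 2 mM KCN. Freeze-thawed mouse or bovine heart mitochondria at 0.2 mg/mL; initial-rate percent of solvent control, single-point 100 μM or dose-response.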

Chain of C. elegans (N2) complex I (NADH:ubiquinone oxidoreductase) (Q94360 17-199): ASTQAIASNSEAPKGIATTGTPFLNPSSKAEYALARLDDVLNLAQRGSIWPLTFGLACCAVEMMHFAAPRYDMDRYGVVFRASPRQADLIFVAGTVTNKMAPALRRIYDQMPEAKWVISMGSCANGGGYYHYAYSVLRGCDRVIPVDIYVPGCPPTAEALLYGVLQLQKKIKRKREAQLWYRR
Chain of C. elegans (N2) complex I (NADH:ubiquinone oxidoreductase) (P24887 whole entry): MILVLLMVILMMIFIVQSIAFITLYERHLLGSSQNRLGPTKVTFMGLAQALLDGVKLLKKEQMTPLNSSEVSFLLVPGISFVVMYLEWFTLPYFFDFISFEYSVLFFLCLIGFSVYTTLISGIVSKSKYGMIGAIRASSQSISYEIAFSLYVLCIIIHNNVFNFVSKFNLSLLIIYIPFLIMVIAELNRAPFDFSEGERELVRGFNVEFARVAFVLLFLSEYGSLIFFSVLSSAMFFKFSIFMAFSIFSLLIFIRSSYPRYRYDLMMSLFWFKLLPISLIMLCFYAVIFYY
Chain of C. elegans (N2) complex I (NADH:ubiquinone oxidoreductase) (Q93873 31-482): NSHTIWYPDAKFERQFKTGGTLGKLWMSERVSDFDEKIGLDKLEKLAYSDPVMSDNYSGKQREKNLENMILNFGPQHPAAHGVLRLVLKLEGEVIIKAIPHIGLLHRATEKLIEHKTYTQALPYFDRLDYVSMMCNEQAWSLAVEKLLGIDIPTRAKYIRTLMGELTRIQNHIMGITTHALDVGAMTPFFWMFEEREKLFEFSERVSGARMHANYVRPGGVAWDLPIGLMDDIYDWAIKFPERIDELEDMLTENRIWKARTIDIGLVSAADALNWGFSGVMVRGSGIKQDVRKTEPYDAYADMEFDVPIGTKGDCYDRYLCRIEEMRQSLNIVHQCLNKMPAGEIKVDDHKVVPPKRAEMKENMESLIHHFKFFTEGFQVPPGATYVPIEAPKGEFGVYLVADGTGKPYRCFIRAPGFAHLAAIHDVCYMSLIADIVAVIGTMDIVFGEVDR

Question: What does the source list for `Cc1nc2ccccc2n1Cc1ccc(Cl)cc1` [STK697993]?
Answer: remaining activity at 0.0001 µM ([1]; C. elegans mitochondria, 0.0001 µM, Mean, read-out: in vitro complex I activity relative to solvent control): 93.5%; remaining activity at 0.0001 µM ([1]; C. elegans mitochondria, 0.0001 µM, single replicate, read-out: in vitro complex I activity relative to solvent control): 90.1%; remaining activity at 0.0005 µM ([1]; C. elegans mitochondria, 0.0005 µM, Mean, read-out: in vitro complex I activity relative to solvent control): 93.4%; remaining activity at 0.0005 µM ([1]; C. elegans mitochondria, 0.0005 µM, single replicate, read-out: in vitro complex I activity relative to solvent control): 89.1%; remaining activity at 0.001 µM ([1]; C. elegans mitochondria, 0.001 µM, Mean, read-out: in vitro complex I activity relative to solvent control): 92.2%; remaining activity at 0.0025 µM ([1]; C. elegans mitochondria, 0.0025 µM, Mean, read-out: in vitro complex I activity relative to solvent control): 89.9%; remaining activity at 0.005 µM ([1]; C. elegans mitochondria, 0.005 µM, Mean, read-out: in vitro complex I activity relative to solvent control): 93.8%; remaining activity at 0.013 µM ([1]; C. elegans mitochondria, 0.013 µM, Mean, read-out: in vitro complex I activity relative to solvent control): 89.4%; remaining activity at 0.025 µM ([1]; C. elegans mitochondria, 0.025 µM, Mean, read-out: in vitro complex I activity relative to solvent control): 79.6%; remaining activity at 0.025 µM ([1]; C. elegans mitochondria, 0.025 µM, single replicate, read-out: in vitro complex I activity relative to solvent control): 81.1%; remaining activity at 0.063 µM ([1]; C. elegans mitochondria, 0.063 µM, Mean, read-out: in vitro complex I activity relative to solvent control): 59.3%; remaining activity at 0.063 µM ([1]; C. elegans mitochondria, 0.063 µM, single replicate, read-out: in vitro complex I activity relative to solvent control): 58.9%; remaining activity at 0.125 µM ([1]; C. elegans mitochondria, 0.125 µM, Mean, read-out: in vitro complex I activity relative to solvent control): 46.1%; remaining activity at 0.125 µM ([1]; C. elegans mitochondria, 0.125 µM, single replicate, read-out: in vitro complex I activity relative to solvent control): 47%; remaining activity at 0.313 µM ([1]; C. elegans mitochondria, 0.313 µM, Mean, read-out: in vitro complex I activity relative to solvent control): 24.1%; remaining activity at 0.313 µM ([1]; C. elegans mitochondria, 0.313 µM, single replicate, read-out: in vitro complex I activity relative to solvent control): 23.6%; remaining activity at 0.625 µM ([1]; C. elegans mitochondria, 0.625 µM, Mean, read-out: in vitro complex I activity relative to solvent control): 15.5%; remaining activity at 0.625 µM ([1]; C. elegans mitochondria, 0.625 µM, single replicate, read-out: in vitro complex I activity relative to solvent control): 16.8%; remaining activity at 1.5 µM ([1]; C. elegans mitochondria, 1.5 µM, Mean, read-out: in vitro complex I activity relative to solvent control): 6.88%; remaining activity at 3 µM ([1]; C. elegans mitochondria, 3 µM, Mean, read-out: in vitro complex I activity relative to solvent control): 4.54%; remaining activity at 15 µM ([1]; C. elegans mitochondria, 15 µM, Mean, read-out: in vitro complex I activity relative to solvent control): 3.15%; remaining activity at 37.5 µM ([1]; C. elegans mitochondria, 37.5 µM, Mean, read-out: in vitro complex I activity relative to solvent control): 1.66%; remaining activity at 75 µM ([1]; C. elegans mitochondria, 75 µM, Mean, read-out: in vitro complex I activity relative to solvent control): 1.29%; remaining activity at 0.0001 µM ([1]; dose 0.0001 µM, wild-type C. elegans, mean of replicates, read-out: in vitro complex I activity relative to solvent control, Mean): 93.5%; in vitro complex I activity relative to solvent control, individual replicate ([1]; dose 0.0001 µM, wild-type C. elegans, single replicate): 99.582% and 83.147% and 101.146%; remaining activity at 0.0001 µM ([1]; dose 0.0001 µM, wild-type C. elegans, single replicate, read-out: in vitro complex I activity relative to solvent control, individual replicate): 90.1%; remaining activity at 0.0005 µM ([1]; dose 0.0005 µM, wild-type C. elegans, mean of replicates, read-out: in vitro complex I activity relative to solvent control, Mean): 93.4%; in vitro complex I activity relative to solvent control, individual replicate ([1]; dose 0.0005 µM, wild-type C. elegans, single replicate): 96.982% and 84.926% and 102.628%; remaining activity at 0.0005 µM ([1]; dose 0.0005 µM, wild-type C. elegans, single replicate, read-out: in vitro complex I activity relative to solvent control, individual replicate): 89.1%; remaining activity at 0.001 µM ([1]; dose 0.001 µM, wild-type C. elegans, mean of replicates, read-out: in vitro complex I activity relative to solvent control, Mean): 92.2%; in vitro complex I activity relative to solvent control, individual replicate ([1]; dose 0.001 µM, wild-type C. elegans, single replicate): 93.635% and 85.360% and 84.052% and 105.930%; remaining activity at 0.0025 µM ([1]; dose 0.0025 µM, wild-type C. elegans, mean of replicates, read-out: in vitro complex I activity relative to solvent control, Mean): 89.9%; in vitro complex I activity relative to solvent control, individual replicate ([1]; dose 0.0025 µM, wild-type C. elegans, single replicate): 94.908% and 85.958% and 78.987% and 99.629%; remaining activity at 0.005 µM ([1]; dose 0.005 µM, wild-type C. elegans, mean of replicates, read-out: in vitro complex I activity relative to solvent control, Mean): 93.8%; in vitro complex I activity relative to solvent control, individual replicate ([1]; dose 0.005 µM, wild-type C. elegans, single replicate): 110.821% and 90.887% and 82.153% and 91.307%; remaining activity at 0.013 µM ([1]; dose 0.013 µM, wild-type C. elegans, mean of replicates, read-out: in vitro complex I activity relative to solvent control, Mean): 89.4%; in vitro complex I activity relative to solvent control, individual replicate ([1]; dose 0.013 µM, wild-type C. elegans, single replicate): 104.424% and 80.938% and 77.600% and 94.576%; remaining activity at 0.025 µM ([1]; dose 0.025 µM, wild-type C. elegans, mean of replicates, read-out: in vitro complex I activity relative to solvent control, Mean): 79.6%; in vitro complex I activity relative to solvent control, individual replicate ([1]; dose 0.025 µM, wild-type C. elegans, single replicate): 79.265% and 72.113% and 85.782%; remaining activity at 0.025 µM ([1]; dose 0.025 µM, wild-type C. elegans, single replicate, read-out: in vitro complex I activity relative to solvent control, individual replicate): 81.1%; remaining activity at 0.063 µM ([1]; dose 0.063 µM, wild-type C. elegans, mean of replicates, read-out: in vitro complex I activity relative to solvent control, Mean): 59.3%; in vitro complex I activity relative to solvent control, individual replicate ([1]; dose 0.063 µM, wild-type C. elegans, single replicate): 58.500% and 52.939% and 67.015%; remaining activity at 0.063 µM ([1]; dose 0.063 µM, wild-type C. elegans, single replicate, read-out: in vitro complex I activity relative to solvent control, individual replicate): 58.9%; remaining activity at 0.125 µM ([1]; dose 0.125 µM, wild-type C. elegans, mean of replicates, read-out: in vitro complex I activity relative to solvent control, Mean): 46.1%; in vitro complex I activity relative to solvent control, individual replicate ([1]; dose 0.125 µM, wild-type C. elegans, single replicate): 44.996% and 42.086% and 50.202%; remaining activity at 0.125 µM ([1]; dose 0.125 µM, wild-type C. elegans, single replicate, read-out: in vitro complex I activity relative to solvent control, individual replicate): 47%; remaining activity at 0.313 µM ([1]; dose 0.313 µM, wild-type C. elegans, mean of replicates, read-out: in vitro complex I activity relative to solvent control, Mean): 24.1%; in vitro complex I activity relative to solvent control, individual replicate ([1]; dose 0.313 µM, wild-type C. elegans, single replicate): 25.635% and 20.651% and 26.550%; remaining activity at 0.313 µM ([1]; dose 0.313 µM, wild-type C. elegans, single replicate, read-out: in vitro complex I activity relative to solvent control, individual replicate): 23.6%; remaining activity at 0.625 µM ([1]; dose 0.625 µM, wild-type C. elegans, mean of replicates, read-out: in vitro complex I activity relative to solvent control, Mean): 15.5%; in vitro complex I activity relative to solvent control, individual replicate ([1]; dose 0.625 µM, wild-type C. elegans, single replicate): 15.276% and 17.385% and 12.484%; remaining activity at 0.625 µM ([1]; dose 0.625 µM, wild-type C. elegans, single replicate, read-out: in vitro complex I activity relative to solvent control, individual replicate): 16.8%; remaining activity at 1.5 µM ([1]; dose 1.5 µM, wild-type C. elegans, mean of replicates, read-out: in vitro complex I activity relative to solvent control, Mean): 6.88%; in vitro complex I activity relative to solvent control, individual replicate ([1]; dose 1.5 µM, wild-type C. elegans, single replicate): 4.958% and 1.160% and 6.055% and 15.327%; remaining activity at 3 µM ([1]; dose 3 µM, wild-type C. elegans, mean of replicates, read-out: in vitro complex I activity relative to solvent control, Mean): 4.54%; in vitro complex I activity relative to solvent control, individual replicate ([1]; dose 3 µM, wild-type C. elegans, single replicate): 0.589% and 7.541% and 4.494% and 5.523%; remaining activity at 15 µM ([1]; dose 15 µM, wild-type C. elegans, mean of replicates, read-out: in vitro complex I activity relative to solvent control, Mean): 3.15%; in vitro complex I activity relative to solvent control, individual replicate ([1]; dose 15 µM, wild-type C. elegans, single replicate): 6.941% and 0.000% and 2.528% and 3.137%; remaining activity at 37.5 µM ([1]; dose 37.5 µM, wild-type C. elegans, mean of replicates, read-out: in vitro complex I activity relative to solvent control, Mean): 1.66%; in vitro complex I activity relative to solvent control, individual replicate ([1]; dose 37.5 µM, wild-type C. elegans, single replicate): 3.595% and 0.000% and 3.039%; remaining activity at 75 µM ([1]; dose 75 µM, wild-type C. elegans, mean of replicates, read-out: in vitro complex I activity relative to solvent control, Mean): 1.29%; in vitro complex I activity relative to solvent control, individual replicate ([1]; dose 75 µM, wild-type C. elegans, single replicate): 0.000% and 3.223% and 1.928%; IC50 ([1]; in vitro complex I dose response on C. elegans mitochondria, average of at least two biological replicates, fit in R (DRC), read-out: IC50 C. elegans complex I): 110 nM; Log IC50 C. elegans complex I ([1]; log10 of IC50 in µM, C. elegans mitochondria): -0.96 µM; IC50 ([1]; wild-type (N2) mitochondria, read-out: C. elegans Complex I IC50): 110 nM; IC50 ([1]; wild-type (N2) mitochondria, read-out: C. elegans complex I IC50): 112 nM; IC50 ([1]; wild-type C. elegans mitochondria, estimated from fitted dose-response curves, read-out: C. elegans Complex I IC50): 110 nM; Complex I IC50 ~Fold Change ([2]; B. taurus complex I IC50 relative to C. elegans complex I IC50): 2.72; IC50 ([2]; B. taurus heart mitochondria, estimated from fitted dose-response curves, read-out: B. taurus Complex I IC50): 300 nM; B. taurus: C. elegans IC50 Fold Change (Complex I IC50 ~Fold Change) ([2]; complex I IC50 ratio bovine heart / C. elegans): 2.72; IC50 Fold change ([2]; fold-change in IC50 between B. taurus and C. elegans complex I): 2.72; Log IC50 B. taurus complex I ([2]; log10 of IC50 in µM, B. taurus mitochondria): -0.52 µM

Reference: article PMC11079024, “Identification of a family of species-selective complex I inhibitors as potential anthelmintics” (Nature Communications, 2024)
